# Test results from patent publication US20030157155A1, “Compositions for use as penetration promoters in transdermal formulations for highly lipophilic active ingredients” (priority 2000, published 2003).
# Assays:
# [1] = octanol/water partition coefficient
# [2] = physchem
Structure (SMILES),logP [1],logP [2]
"CN(CCCCCCC(F)(F)C(F)(F)C(F)(F)C(F)(F)F)CCCCC[C@@H]1Cc2cc(O)ccc2[C@@H]2[C@@H]1[C@@H]1CC[C@H](O)[C@@]1(C)C[C@@H]2F [antiestrogen 2, 11β-fluoro-7α-{5-[methyl-(7,7,8,8,9,9,10,10,10-nonafluorodecyl)amino]pentyl}estra-1,3,5(10)-triene-3,17β-diol]",7.8,–
"CN(CCCCC[C@@H]1Cc2cc(O)ccc2[C@@H]2[C@@H]1[C@@H]1CC[C@H](O)[C@@]1(C)C[C@@H]2F)CCCSCCCC(F)(F)C(F)(F)F [antiestrogen 1, 11β-fluoro-7α-{5-[N-methyl-N-3-(4,4,5,5,5-pentafluoropentylthio)propylamino]pentyl}estra-1,3,5(10)-triene-3,17β-diol]",–,5.8
